Here are results for six compounds from ChEMBL document CHEMBL4340511, “22-Oxocholestane oximes as potential anti-inflammatory drug candidates” (Eur J Med Chem, 2019).

Molecules are shown by their SMILES. The source made the active and inactive calls. No cut-off for these calls is given here.

What all share (assay type): functional, organism-based
Assay [1] deals with Mus musculus. The experiment in a line: Antiinflammatory activity in CD1 mouse model of TPA-induced ear edema assessed as decrease in IL-6 expression at 125 ug/ear, each surface administered topically for 15 mins prior to TPA challenge and measured after 6 hrs by qRT-PCR analysis. On the technique in general: In qPCR the cycle at which signal appears reflects the starting amount.

Assay [2] concerns Mus musculus. The experiment in a line: Antiinflammatory activity in CD1 mouse model of TPA-induced ear edema assessed as decrease in IFNgamma expression at 125 ug/ear, each surface administered topically for 15 mins prior to TPA challenge and measured after 6 hrs by qRT-PCR analysis.
In assay [3] the test system is Mus musculus. The experiment in a line: Antiinflammatory activity in CD1 mouse model of TPA-induced ear edema assessed as decrease in COX-2 expression at 125 ug/ear, each surface administered topically for 15 mins prior to TPA challenge and measured after 6 hrs by qRT-PCR analysis.
Assay [4] concerns Mus musculus. The experiment in a line: Antiinflammatory activity in CD1 mouse assessed as reduction in TPA-induced ear flushing at 125 ug/ear, each surface administered topically for 15 mins prior to TPA challenge and measured after 6 hrs.
Assay [5] concerns Mus musculus. The experiment in a line: Antiinflammatory activity against TPA-induced ear edema in CD1 mouse assessed as reduction in weight of ear punches at 125 ug/ear, each surface administered topically for 15 mins prior to TPA challenge and measured after 6 hrs.
Assay [6] deals with Mus musculus. Kind of assay: Antiinflammatory activity in CD1 mouse model of TPA-induced ear edema assessed as decrease in TNFalpha expression at 125 ug/ear, each surface administered topically for 15 mins prior to TPA challenge and measured after 6 hrs by qRT-PCR analysis.
Assay [7] deals with Mus musculus. The experiment in a line: Antiinflammatory activity against TPA-induced ear edema in CD1 mouse assessed as reduction in ear edema at 125 ug/ear, each surface administered topically for 15 mins prior to TPA challenge and measured after 6 hrs.
Assay [8] concerns Mus musculus. The experiment in a line: Antiinflammatory activity in CD1 mouse model of TPA-induced ear edema assessed as decrease in MIF expression at 125 ug/ear, each surface administered topically for 15 mins prior to TPA challenge and measured after 6 hrs by qRT-PCR analysis.
Assay [9] has as its system Mus musculus. The experiment in a line: Antiinflammatory activity in CD1 mouse model of TPA-induced ear edema assessed as decrease in IL-6 expression at 250 ug/ear, each surface administered topically for 15 mins prior to TPA challenge and measured after 6 hrs by qRT-PCR analysis.
Assay [10] has as its system Mus musculus. The experiment in a line: Antiinflammatory activity in CD1 mouse assessed as reduction in TPA-induced ear flushing at 250 ug/ear, each surface administered topically for 15 mins prior to TPA challenge and measured after 6 hrs.
Assay [11] concerns Mus musculus. The experiment in a line: Antiinflammatory activity against TPA-induced ear edema in CD1 mouse assessed as reduction in ear edema at 225 ug/ear, each surface administered topically for 15 mins prior to TPA challenge and measured after 6 hrs.
The test system of assay [12] is Mus musculus. The experiment in a line: Antiinflammatory activity against TPA-induced ear edema in CD1 mouse assessed as reduction in weight of ear punches at 225 ug/ear, each surface administered topically for 15 mins prior to TPA challenge and measured after 6 hrs.
Assay [13] deals with Mus musculus. The experiment in a line: Antiinflammatory activity in CD1 mouse model of TPA-induced ear edema assessed as decrease in MIF expression at 250 ug/ear, each surface administered topically for 15 mins prior to TPA challenge and measured after 6 hrs by qRT-PCR analysis.
Assay [14] deals with Mus musculus. The experiment in a line: Antiinflammatory activity in CD1 mouse model of TPA-induced ear edema assessed as decrease in TNFalpha expression at 250 ug/ear, each surface administered topically for 15 mins prior to TPA challenge and measured after 6 hrs by qRT-PCR analysis.
For assay [15], the system named is Mus musculus. Kind of assay: Antiinflammatory activity in CD1 mouse model of TPA-induced ear edema assessed as decrease in COX-2 expression at 250 ug/ear, each surface administered topically for 15 mins prior to TPA challenge and measured after 6 hrs by qRT-PCR analysis.
In assay [16] the test system is Mus musculus. Kind of assay: Antiinflammatory activity in CD1 mouse model of TPA-induced ear edema assessed as decrease in IFNgamma expression at 250 ug/ear, each surface administered topically for 15 mins prior to TPA challenge and measured after 6 hrs by qRT-PCR analysis.

In the case of `CC(=O)O[C@H]1CC[C@@]2(C)C(=CC[C@H]3[C@@H]4C[C@H](OC(C)=O)[C@H]([C@H](C)C(=O)CC[C@H](C)/C=N/O)[C@@]4(C)CC[C@@H]32)C1`, the outcome in the assay with Mus musculus [1], in the assay with Mus musculus [3], with Mus musculus [5], in the assay with Mus musculus [6], in the assay with Mus musculus [7] and in the assay on Mus musculus [8] was Active. For the same compound, the result with Mus musculus [2] and with Mus musculus [4] was inactive.

As for `CC(=O)O[C@H]1CC[C@@]2(C)C(=CC[C@H]3[C@@H]4C[C@H](OC(C)=O)[C@H]([C@H](C)C(=O)CC[C@@H](C)/C=N/O)[C@@]4(C)CC[C@@H]32)C1`, the outcome with Mus musculus [5] was inactive.

For the compound `CC(=O)O[C@H]1C[C@H]2[C@@H]3CC=C4C[C@@H](O)CC[C@]4(C)[C@H]3CC[C@]2(C)[C@H]1[C@H](C)C(=O)CC/C(C)=N/O`, the result in the assay with Mus musculus [1], in the assay with Mus musculus [3], in the assay on Mus musculus [5], in the assay with Mus musculus [6], in the assay with Mus musculus [7] and in the assay with Mus musculus [8] was Active. Besides, the outcome in the assay with Mus musculus [2] and in the assay with Mus musculus [4] was inactive.

In the case of `CC(=O)O[C@H]1C[C@H]2[C@@H]3CC=C4C[C@@H](O)CC[C@]4(C)[C@H]3CC[C@]2(C)[C@H]1[C@H](C)C(=O)CC[C@H](C)/C=N/O`, the outcome in the assay on Mus musculus [1], in the assay with Mus musculus [3], in the assay on Mus musculus [5], in the assay on Mus musculus [6], in the assay on Mus musculus [7] and with Mus musculus [8] was Active. Further, the outcome with Mus musculus [2] and in the assay on Mus musculus [4] was inactive.

For `CC(=O)O[C@H]1C[C@H]2[C@@H]3CC=C4C[C@@H](O)CC[C@]4(C)[C@H]3CC[C@]2(C)[C@H]1[C@H](C)C(=O)CC[C@@H](C)/C=N/O`, the outcome in the assay with Mus musculus [5] was inactive.

On to `C[C@@H]1C[C@H]2[C@@H]3CCC4=CC(=O)C=C[C@]4(C)[C@@]3(F)[C@@H](O)C[C@]2(C)[C@@]1(O)C(=O)CO`, for which the result in the assay with Mus musculus [9], with Mus musculus [11], with Mus musculus [12], in the assay on Mus musculus [13], in the assay on Mus musculus [14] and with Mus musculus [15] was Active. Moreover, the result with Mus musculus [10] and in the assay on Mus musculus [16] was inactive.
